Read-outs that look alike come from different tables or passages of the source.
Assay: Liver HFPO-TeA dosimetry
Type: in vivo, Sprague Dawley rats
Conditions: for 5D Liver Conc.: 5 days of exposure, mean ± SD n=4; for concentration at 5 days: Sprague Dawley, rat, liver, oral, wet weight, individual rats, read-out: Liver Conc.
Protocol: Whole blood was collected from the retro-orbital plexus under isoflurane anesthesia 2 h following the first dose and by cardiac puncture 24 h after the last dosage. Blood was stored in anticoagulant potassium ethylenediaminetetraacetic acid (K3EDTA)-coated vacutainers, and then processed to isolate plasma via centrifugation. Animals were euthanized via carbon dioxide asphyxiation and subsequent exsanguination. Liver was collected, weighed, cubed, and divided into three aliquots. One aliquot of tissue was flash-frozen in liquid nitrogen and stored at −80 °C for analytical chemistry analyses. The remaining two aliquots were placed in RNALater and frozen for use in the companion transcriptomic study. Liver and plasma samples were received at the U.S. EPA Center for Computational Toxicology and Exposure, Advanced Analytical Chemistry Methods Branch in Research Triangle Park, North Carolina, USA, and stored at −80 °C prior to extraction.
Information on the chemicals and materials used in the liver plasma HFPO-TeA dosimetry work can be found in Supplementary Text S6 and Table S3. Liver sample preparation was modified from Conley et al.’s work and detailed in Supplementary Text S6 [49]. Briefly, samples were spiked with the internal standard PFHxDA then homogenized in 200 µL of ACN containing 0.1% formic acid. The sample was centrifuged, and the supernatant was transferred. This process was repeated twice more, then stored at −20 °C prior to analysis.
Liver samples were analyzed using the same analytical assessment procedure as the plasma dosimetry samples. Matrix blanks were analyzed with each sample set. HFPO-TeA was not detected in the blanks above the limit of quantitation (LOQ) of 1.58 µM. Statistical analysis is described in Supplementary Text S3, normalization calculations are described in Supplementary Text S5 [47], and the liver-to-plasma partitioning calculation is outlined in Supplementary Text S7 [32, 50, 51].
All in vivo results values are reported as mean ± one standard deviation (SD). Statistical evaluation of in vivo data was conducted using a two-way analysis of variance (ANOVA) and Dunnett’s Test, both at α = 0.05 significance level, on GraphPad Prism v9.5.1.
Support ing Text S4: Plasma Dosimetry Chemicals, Materials, and Analysis Sprague Dawley rodent plasma (pooled, mixed sex) collected with ethylenediaminetetraacetic acid (EDTA) and sterile filtered (0.2 µm) was obtained from BioIVT (Westbury, NY, USA) and stored at -80 °C until use as the control matrix for generating calibration curves and as the matrix blank during plasma sample analysis. The HFPO-TeA (98.97% pure) used for calibration curve preparation was obtained from Oakwood Products Inc. (West Columbia, South Carolina, USA). Unlabeled perfluorohexadecanoic acid (CASRN 67905-19-5 | DTXSID1070800 | PFHxDA; ≥ 98% pure) was obtained from Cambridge Isotope Laboratories (Tewksbury, MA, USA) to serve as the internal standard since a labeled HFPO-TeA standard was not commercially available. […]
Samples were quantitated against matrix-matched calibration curves containing a minimum of 5 points spanning the range 20 – 80,280 ng/mL plasma. Calibrants were prepared by spiking commercial rat plasma (BioIVT) with HFPO-TeA and PFHxDA and then extracted in the same manner as study samples.
Support ing Text S5: Normalization of Dosimetry Data Calculations
Percent dose of HFPO-TeA in plasma was calculated using the observed plasma concentrations and the average plasma volume for Sprague Dawley rats. The density of plasma was then used to convert from mL plasma to grams plasma for ease of comparison to the liver percent dose data. Average percent dose of HFPO-TeA in liver was calculated using the observed liver concentrations and liver weights. These calculations allow for a comparison of the potential saturation of available proteins in […]
Support ing Text S6: Liver Dosimetry Chemicals, Materials, and Analysis […]

O=C(O)C(F)(OC(F)(F)C(F)(OC(F)(F)C(F)(OC(F)(F)C(F)(F)C(F)(F)F)C(F)(F)F)C(F)(F)F)C(F)(F)F (stereo not shown) [HFPO-TeA, perfluoro-(2,5,8-trimethyl-3,6,9-trioxadodecanoic) acid]
5D Liver Conc. (0.9 mg/kg/day, F): 14.0 ± 4.3 µM | 5D Liver Conc. (2.3 mg/kg/day, F): 16.5 ± 12.6 µM | 5D Liver Conc. (2.3 mg/kg/day, M): 10.3 ± 7.5 µM | 5D Liver Conc. (6.3 mg/kg/day, F): 86.8 ± 31.7 µM | 5D Liver Conc. (6.3 mg/kg/day, M): 82.7 ± 10.5 µM | 5D Liver Conc. (17 mg/kg/day, F): 250 ± 39 µM | 5D Liver Conc. (17 mg/kg/day, M): 210 ± 85 µM | concentration at 5 days (female, 0.9 mg/kg/day, F): 9240 ng/g | concentration at 5 days (female, 17 mg/kg/day, F): 174000 ng/g | concentration at 5 days (male, 6.3 mg/kg/day, M): 61600 ng/g

— article PMC10747602, “Dose Response, Dosimetric, and Metabolic Evaluations of Replacement PFAS Perfluoro-(2,5,8-trimethyl-3,6,9-trioxadodecanoic) Acid (HFPO-TeA)” (Toxics, 2023)
